Measurements from BindingDB's records for patent US20260007681 (University Of Michigan, 2026).
pIC50: −log10 of the molar value.

Target: DNA damage-binding protein 1/Protein cereblon (Homo sapiens, UniProt Q96SW2)
Experimental: The binding potency was determined using H-TRF assay technology (Perkin Elmer). Compounds were serially diluted in DMSO and 0.2 μL volume was transferred to white 384-well plate.

Sequence of DNA damage-binding protein 1/Protein cereblon (Q16531 whole entry): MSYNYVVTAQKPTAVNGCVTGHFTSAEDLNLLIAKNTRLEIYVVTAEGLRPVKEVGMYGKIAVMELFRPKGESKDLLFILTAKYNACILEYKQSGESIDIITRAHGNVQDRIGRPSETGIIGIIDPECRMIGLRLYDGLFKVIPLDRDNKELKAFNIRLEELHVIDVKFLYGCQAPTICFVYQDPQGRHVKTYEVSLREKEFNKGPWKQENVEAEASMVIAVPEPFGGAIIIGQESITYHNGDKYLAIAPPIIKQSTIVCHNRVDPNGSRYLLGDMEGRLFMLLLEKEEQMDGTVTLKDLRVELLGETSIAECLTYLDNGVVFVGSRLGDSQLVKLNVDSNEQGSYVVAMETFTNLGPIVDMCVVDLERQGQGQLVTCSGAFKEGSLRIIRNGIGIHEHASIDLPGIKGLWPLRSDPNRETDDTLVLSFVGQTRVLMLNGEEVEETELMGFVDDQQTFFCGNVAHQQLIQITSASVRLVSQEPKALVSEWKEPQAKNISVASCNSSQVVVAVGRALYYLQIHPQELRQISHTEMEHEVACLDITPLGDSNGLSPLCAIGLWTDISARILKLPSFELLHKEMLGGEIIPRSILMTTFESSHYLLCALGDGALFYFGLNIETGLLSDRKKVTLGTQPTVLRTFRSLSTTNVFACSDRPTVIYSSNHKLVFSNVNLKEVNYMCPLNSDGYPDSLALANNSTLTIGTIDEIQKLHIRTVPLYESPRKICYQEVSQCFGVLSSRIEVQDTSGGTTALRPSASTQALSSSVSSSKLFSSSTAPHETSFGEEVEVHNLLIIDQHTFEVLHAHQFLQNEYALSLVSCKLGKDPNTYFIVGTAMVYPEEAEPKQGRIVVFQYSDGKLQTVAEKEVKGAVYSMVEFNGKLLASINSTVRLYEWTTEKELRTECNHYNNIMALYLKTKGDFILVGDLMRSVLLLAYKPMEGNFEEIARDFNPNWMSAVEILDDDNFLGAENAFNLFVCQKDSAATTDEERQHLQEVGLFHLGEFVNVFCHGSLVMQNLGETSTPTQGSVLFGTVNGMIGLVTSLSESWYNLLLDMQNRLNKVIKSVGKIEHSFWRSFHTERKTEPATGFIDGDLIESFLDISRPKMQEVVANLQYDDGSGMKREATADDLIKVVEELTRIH
Sequence of DNA damage-binding protein 1/Protein cereblon (Q96SW2 whole entry): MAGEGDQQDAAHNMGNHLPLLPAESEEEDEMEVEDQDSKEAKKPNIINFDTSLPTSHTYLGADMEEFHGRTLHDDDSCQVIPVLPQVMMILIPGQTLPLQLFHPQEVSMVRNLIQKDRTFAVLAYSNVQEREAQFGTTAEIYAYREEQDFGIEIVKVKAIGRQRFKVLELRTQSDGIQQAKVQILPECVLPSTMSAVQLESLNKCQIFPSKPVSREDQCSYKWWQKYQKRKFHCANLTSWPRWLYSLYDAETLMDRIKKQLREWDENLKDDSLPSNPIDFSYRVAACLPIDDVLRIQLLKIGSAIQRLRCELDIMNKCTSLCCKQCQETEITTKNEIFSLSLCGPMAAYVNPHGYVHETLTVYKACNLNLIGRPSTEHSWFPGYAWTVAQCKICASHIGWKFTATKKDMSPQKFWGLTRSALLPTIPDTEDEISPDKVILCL

C[C@@H]1Cc2c([nH]c3ccccc23)[C@@H](c2cnc(N3CCC(N4CCN(c5ccc(NC6CCC(=O)NC6=O)cc5F)CC4)CC3)nc2)N1CC(C)(C)F (stereo partly specified) [US20260007681, Compound A2]
pIC50: 5.30 to 6.30
